Data from patent publication US8802702B2, “Compounds for reducing drug resistance and uses thereof” (The General Hospital Corporation, priority 2009, dated 2014).
Read-outs that look alike come from different tables or passages of the source.

Tests used:
SKOV-3TR cells = experiment: Reversal of drug resistance, cytotoxicity (MTT) assay in SKOV-3TR; type: cell-based; conditions: for IC50: Homo sapiens, SKOV3TR
Method: FIGS. 1 (a-b) are graphs that depict the effects of NSC23925 on drug sensitivity in ovarian cancer cells; 1(a) depicts the effects of NSC23925 on sensitive (SKOV-3) and resistant (SKOV-3TR) cells; 1(b) depicts the effects of NSC23925 on sensitive (OVCAR8) and resistant (OVCAR8TR) cells. […] The relative sensitivity of each line to paclitaxel was determined by MTT assay, as described below in the Examples section, 6 days post treatment. […]
Drug cytotoxicity was assessed in vitro using the MTT assay. SKOV-3 and SKOV-3TR cells were used herein. Briefly, 2×10^3 cells per well were plated in 96-well plates in culture medium (RPMI 1640 supplemented with 10% fetal bovine serum and penicillin/streptomycin) containing increasing concentrations of drug. […] The resulting formazan product was dissolved with acid-isopropanol and the absorbance at a wavelength of 490 nm (A490) was read on a SPECTRAmax® Microplate Spectrophotometer (Molecular Devices, Sunnyvale, Calif.). The absorbance values were normalized by assigning the value of the control line in the medium without drug to 1.0 and the value of the no cell control to 0. Experiments were performed in triplicate.

OVCAR8TR cells = experiment: Reversal of drug resistance, cytotoxicity (MTT) assay in OVCAR8TR; type: cell-based, human; conditions: Paclitaxel
Method: FIGS. 1 (a-b) are graphs that depict the effects of NSC23925 on drug sensitivity in ovarian cancer cells; 1(a) depicts the effects of NSC23925 on sensitive (SKOV-3) and resistant (SKOV-3TR) cells; 1(b) depicts the effects of NSC23925 on sensitive (OVCAR8) and resistant (OVCAR8TR) cells. Cells were treated with the paclitaxel and NSC23925 in RPMI1640 complete media at the indicated concentrations. The relative sensitivity of each line to paclitaxel was determined by MTT assay, as described below in the Examples section, 6 days post treatment. A: Reversal of paclitaxel resistance by NSC23925 in SKOV-3TR cells. B: Reversal of paclitaxel resistance by NSC23925 in OVCAR8TR cells.
Drug cytotoxicity was assessed in vitro using the MTT assay. SKOV-3 and SKOV-3TR cells were used herein. Briefly, 2×10^3 cells per well were plated in 96-well plates in culture medium (RPMI 1640 supplemented with 10% fetal bovine serum and penicillin/streptomycin) containing increasing concentrations of drug. After 7 days of culture, 10 μl MTT (5 mg/ml in PBS, obtained from Sigma) were added to each well and the plates were incubated for 4 h. The resulting formazan product was dissolved with acid-isopropanol and the absorbance at a wavelength of 490 nm (A490) was read on a SPECTRAmax® Microplate Spectrophotometer (Molecular Devices, Sunnyvale, Calif.). The absorbance values were normalized by assigning the value of the control line in the medium without drug to 1.0 and the value of the no cell control to 0. Experiments were performed in triplicate.

KHOSR2 cells = experiment: Reversal of drug resistance, cytotoxicity assay in KHOSR2; type: cell-based, human; conditions: for IC50: Homo sapiens
[1] = target: purified recombinant human Pgp1 membrane protein (Homo sapiens, UniProt P08183)
Method: Luminescence was read on a BMG LABTECH Polarstar Optima Luminometer. The decrease in luminescence of untreated samples compared to samples plus Na3VO4(ARLUbasal) represents basal Pgp1 ATPase activity. […] E: Effect of NSC23925 on expression of Pgp1 in paclitaxel resistant cells. The paclitaxel resistant cell line SKOV-3TR was treated with different concentration of NSC23925 for 48 h. Equal amounts (20 μg protein) of total cell lysates were used for each sample. Pgp1 expression was determined by Western blot as described in the Examples section below.
The Pgp-Glo™ Assay Systems (Promega) provide the necessary reagents for performing luminescent P-glycoprotein (Pgp)-ATPase assays. The ATPase assay provides a rapid, […], compound-independent measure of the concentration-dependence of any interaction of a drug with Ppg1. […] Luminescence was read on a BMG LABTECH Polarstar Optima Luminometer. The decrease in luminescence of NT samples compared to samples plus Na3VO4 (ΔRLUbasal) represents basal Pgp-ATPase activity.
Pgp-ATPase assay is a valuable screening tool for determining if a drug interacts with Pgp.

[2] = tested on: Pgp1 expression in SKOV-3TR cells; experiment: Pgp1 expression by Western blot; type: cell-based, human; conditions: NSC23925 up to 10 μM for 48 h
[3] = tested on: SKOV-3TR and KHOSR2 cells; experiment: Flow cytometry of intracellular doxorubicin retention; type: cell-based, human; conditions: 5 μM doxorubicin, NSC23925 0.5 μM, 1 hour
Method: FIG. 9 depicts the intracellular retention of doxorubicin from multidrug resistant SKOV-3TR and KHOSR2 cells in the presence of 5 μM doxorubicin with or without treatment of NSC23925 (0.5 μM). Cells were treated for 1 hour before the flow cytometry analysis.

[4] = Doxorubicin, add NSC23925 0.1 μM
[5] = Doxorubicin, add NSC23925 0.5 μM
[6] = Paclitaxel, add NSC23925 0.1 μM
[7] = Paclitaxel, add NSC23925 0.5 μM

purified recombinant human Pgp1 membrane protein, sequence (P08183 whole entry): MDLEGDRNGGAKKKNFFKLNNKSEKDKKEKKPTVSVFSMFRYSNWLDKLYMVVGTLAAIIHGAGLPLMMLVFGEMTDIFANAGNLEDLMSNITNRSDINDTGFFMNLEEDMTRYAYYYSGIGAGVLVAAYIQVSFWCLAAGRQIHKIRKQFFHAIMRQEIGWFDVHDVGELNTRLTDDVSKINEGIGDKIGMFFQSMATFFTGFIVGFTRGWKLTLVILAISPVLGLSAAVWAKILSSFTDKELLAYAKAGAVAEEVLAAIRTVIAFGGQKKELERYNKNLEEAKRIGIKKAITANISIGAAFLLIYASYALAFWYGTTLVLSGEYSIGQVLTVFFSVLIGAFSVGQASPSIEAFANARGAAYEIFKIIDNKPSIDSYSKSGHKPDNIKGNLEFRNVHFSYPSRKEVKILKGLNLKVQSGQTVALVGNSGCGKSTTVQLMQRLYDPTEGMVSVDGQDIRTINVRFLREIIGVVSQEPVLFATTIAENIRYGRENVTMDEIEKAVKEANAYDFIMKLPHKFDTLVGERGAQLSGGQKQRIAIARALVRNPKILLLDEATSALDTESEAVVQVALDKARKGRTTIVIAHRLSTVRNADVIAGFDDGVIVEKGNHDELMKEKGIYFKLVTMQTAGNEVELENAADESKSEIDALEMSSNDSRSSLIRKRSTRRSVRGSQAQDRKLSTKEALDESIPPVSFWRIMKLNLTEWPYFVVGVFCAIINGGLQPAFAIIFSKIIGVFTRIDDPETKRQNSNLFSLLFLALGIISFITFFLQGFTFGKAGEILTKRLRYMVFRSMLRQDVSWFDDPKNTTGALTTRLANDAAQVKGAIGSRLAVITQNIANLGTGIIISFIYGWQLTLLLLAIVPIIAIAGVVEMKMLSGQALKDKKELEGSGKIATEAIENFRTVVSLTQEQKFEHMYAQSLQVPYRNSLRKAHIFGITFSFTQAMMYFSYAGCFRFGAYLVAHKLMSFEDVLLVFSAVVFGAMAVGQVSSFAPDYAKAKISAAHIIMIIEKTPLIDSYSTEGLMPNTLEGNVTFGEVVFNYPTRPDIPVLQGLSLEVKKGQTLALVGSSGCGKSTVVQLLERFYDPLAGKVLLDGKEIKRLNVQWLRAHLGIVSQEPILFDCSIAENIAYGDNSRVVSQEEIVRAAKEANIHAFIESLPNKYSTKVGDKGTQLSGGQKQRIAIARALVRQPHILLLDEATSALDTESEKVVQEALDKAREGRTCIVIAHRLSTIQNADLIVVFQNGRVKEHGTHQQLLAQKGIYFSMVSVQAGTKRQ

COc1ccc(-c2cc(C(O)C3CCCCN3)c3ccccc3n2)cc1 (centres unmarked) [NSC23925, (2-(4-methoxyphenyl)quinolin-4-yl)(piperidin-2-yl)methanol]
fold-reversal of drug resistance, SKOV-3TR (SKOV-3TR cells; [4]): (1.4) fold | fold-reversal of drug resistance, SKOV-3TR (SKOV-3TR cells; [5]): (3.3) fold | fold-reversal of drug resistance, SKOV-3TR (SKOV-3TR cells; Doxorubicin, add NSC23925 1 μM): (11.5) fold | fold-reversal of drug resistance, SKOV-3TR (SKOV-3TR cells; ET-743, add NSC23925 0.1 μM): (0.8) fold | fold-reversal of drug resistance, SKOV-3TR (SKOV-3TR cells; ET-743, add NSC23925 0.5 μM): (1) fold | fold-reversal of drug resistance, SKOV-3TR (SKOV-3TR cells; ET-743, add NSC23925 1 μM): (1) fold | IC50 (SKOV-3TR cells; Doxorubicin, add NSC23925 0.1 μM, read-out: SKOV-3TR IC50 of Doxorubicin): 16500 ± 210 nM | IC50 (SKOV-3TR cells; Doxorubicin, add NSC23925 0.5 μM, read-out: SKOV-3TR IC50 of Doxorubicin): 6780 ± 160 nM | IC50 (SKOV-3TR cells; Doxorubicin, add NSC23925 1 μM, read-out: SKOV-3TR IC50 of Doxorubicin): 1940 ± 220 nM | IC50 (SKOV-3TR cells; ET-743, add NSC23925 0.1 μM, read-out: SKOV-3TR IC50 of ET-743): 5 ± 2 nM | IC50 (SKOV-3TR cells; ET-743, add NSC23925 0.5 μM, read-out: SKOV-3TR IC50 of ET-743): 4 ± 1 nM | IC50 (SKOV-3TR cells; ET-743, add NSC23925 1 μM, read-out: SKOV-3TR IC50 of ET-743): 4 ± 1 nM | IC50 (SKOV-3TR cells; PM00104, add NSC23925 0.1 μM, read-out: SKOV-3TR IC50 of PM00104): 5 ± 2 nM | IC50 (SKOV-3TR cells; PM00104, add NSC23925 0.5 μM, read-out: SKOV-3TR IC50 of PM00104): 7 ± 1 nM | IC50 (SKOV-3TR cells; PM00104, add NSC23925 1 μM, read-out: SKOV-3TR IC50 of PM00104): 5 ± 2 nM | IC50 (SKOV-3TR cells; Paclitaxel, add NSC23925 0.1 μM, read-out: SKOV-3TR IC50 of Paclitaxel): 302 ± 56 nM | IC50 (SKOV-3TR cells; Paclitaxel, add NSC23925 0.5 μM, read-out: SKOV-3TR IC50 of Paclitaxel): 132 ± 47 nM | IC50 (SKOV-3TR cells; Paclitaxel, add NSC23925 1 μM, read-out: SKOV-3TR IC50 of Paclitaxel): 37 ± 28 nM | fold-reversal of drug resistance, SKOV-3TR (SKOV-3TR cells; PM00104, add NSC23925 0.1 μM): (1.2) fold | fold-reversal of drug resistance, SKOV-3TR (SKOV-3TR cells; PM00104, add NSC23925 0.5 μM): (0.9^ fold | fold-reversal of drug resistance, SKOV-3TR (SKOV-3TR cells; PM00104, add NSC23925 1 μM): (1.2) fold | fold-reversal of drug resistance, SKOV-3TR (SKOV-3TR cells; [6]): (1.03) fold | fold-reversal of drug resistance, SKOV-3TR (SKOV-3TR cells; [7]): (2.4) fold | fold-reversal of drug resistance, SKOV-3TR (SKOV-3TR cells; Paclitaxel, add NSC23925 1 μM): (8.4) fold | IC50 (OVCAR8TR cells; Homo sapiens, add NSC23925 0.1 μM, read-out: OVCAR8TR IC50 of Paclitaxel): 127 ± 27 nM | fold-reversal of drug resistance, OVCAR8TR (OVCAR8TR cells; add NSC23925 0.5 μM): (4.7) fold | fold-reversal of drug resistance, KHOSR2 (KHOSR2 cells; [4]): (1.4) fold | fold-reversal of drug resistance, KHOSR2 (KHOSR2 cells; [5]): (8.6) fold | fold-reversal of drug resistance, KHOSR2 (KHOSR2 cells; Doxorubicin, add NSC23925 1 μM): (35) fold | fold-reversal of drug resistance, KHOSR2 (KHOSR2 cells; ET-743, add NSC23925 0.1 μM): (1.2) fold | fold-reversal of drug resistance, KHOSR2 (KHOSR2 cells; ET-743, add NSC23925 0.5 μM): (2.1) fold | fold-reversal of drug resistance, KHOSR2 (KHOSR2 cells; ET-743, add NSC23925 1 μM): (3.2) fold | IC50 (KHOSR2 cells; Doxorubicin, add NSC23925 0.1 μM, read-out: KHOSR2 IC50 of Doxorubicin): 7360 ± 336 nM | IC50 (KHOSR2 cells; Doxorubicin, add NSC23925 0.5 μM, read-out: KHOSR2 IC50 of Doxorubicin): 1200 ± 461 nM | IC50 (KHOSR2 cells; Doxorubicin, add NSC23925 1 μM, read-out: KHOSR2 IC50 of Doxorubicin): 292 ± 210 nM | IC50 (KHOSR2 cells; ET-743, add NSC23925 0.1 μM, read-out: KHOSR2 IC50 of ET-743): 145 ± 45 nM | IC50 (KHOSR2 cells; ET-743, add NSC23925 0.5 μM, read-out: KHOSR2 IC50 of ET-743): 83 ± 39 nM | IC50 (KHOSR2 cells; ET-743, add NSC23925 1 μM, read-out: KHOSR2 IC50 of ET-743): 54 ± 34 nM | IC50 (KHOSR2 cells; PM00104, add NSC23925 0.1 μM, read-out: KHOSR2 IC50 of PM00104): 113 ± 38 nM | IC50 (KHOSR2 cells; PM00104, add NSC23925 0.5 μM, read-out: KHOSR2 IC50 of PM00104): 26 ± 14 nM | IC50 (KHOSR2 cells; PM00104, add NSC23925 1 μM, read-out: KHOSR2 IC50 of PM00104): 8 ± 16 nM | IC50 (KHOSR2 cells; Paclitaxel, add NSC23925 0.1 μM, read-out: KHOSR2 IC50 of Paclitaxel): 160 ± 16 nM | IC50 (KHOSR2 cells; Paclitaxel, add NSC23925 0.5 μM, read-out: KHOSR2 IC50 of Paclitaxel): 120 ± 32 nM | IC50 (KHOSR2 cells; Paclitaxel, add NSC23925 1 μM, read-out: KHOSR2 IC50 of Paclitaxel): 60 ± 20 nM | fold-reversal of drug resistance, KHOSR2 (KHOSR2 cells; PM00104, add NSC23925 0.1 μM): (1.3) fold | fold-reversal of drug resistance, KHOSR2 (KHOSR2 cells; PM00104, add NSC23925 0.5 μM): (5.5) fold | fold-reversal of drug resistance, KHOSR2 (KHOSR2 cells; PM00104, add NSC23925 1 μM): (17.9) fold | fold-reversal of drug resistance, KHOSR2 (KHOSR2 cells; [6]): (1.3) fold | fold-reversal of drug resistance, KHOSR2 (KHOSR2 cells; [7]): (1.8) fold | fold-reversal of drug resistance, KHOSR2 (KHOSR2 cells; Paclitaxel, add NSC23925 1 μM): (3.5) fold | Stimulation of Pgp-ATPase activity [1]: > 30% | Expression level of Pgp1 [2]: not affected | Accumulation of doxorubicin by flow cytometric analysis [3]: increases the accumulation of doxorubicin
